Assay results taken from US20090197897A1, “Novel Oxadiazole Derivatives and Their Use as Positive Allosteric Modulators of Metabotropic Glutamate Receptors” (Addex Pharma SA, priority 2005, published 2009).
pEC50: −log10 of the molar value.

Columns and labels:
rat mGluR5 = molecular target: T1, rat mGluR5 (Rattus norvegicus, UniProt P31424); assay: mGluR5 assay on HEK-expressing rat mGluR5 (fluorescent cell based Ca2+ mobilization assay); conditions: HEK-293 cells stably expressing rat mGluR5; no co-addition of glutamate; mean of at least three independent experiments in duplicate; read-out: Ca++ Flux (mean EC50)
T1 construct: expressed in transfected cells
Method: mGluR5 Assay on HEK-Expressing Rat mGluR5
Positive functional expression of HEK-293 cells stably expressing rat mGluR5 receptor was determined by measuring intracellular Ca^2+ changes using a Fluorometric Imaging Plate Reader (FLIPR, Molecular Devices, Sunnyvale, Calif.) in response to glutamate or selective known mGluR5 agonists and antagonists. Rat mGluR5 RT-PCR products in HEK-293 cells were sequenced and found 100% identical to rat mGluR5 Genbank reference sequence (NM_017012). HEK-293 cells expressing rmGluR5 were maintained in media containing DMEM, dialyzed Fetal Bovine Serum (10%), Glutamax™ (2 mM), Penicillin (100 units/ml), Streptomycin (100 μg/ml), Geneticin (100 μg/ml) and Hygromycin-B (40 μg/ml) at 37° C./5% CO2.
After one day of incubation, cells were washed with assay buffer containing: 142 mM NaCl, 6 mM KCl, 1 mM […], 1 mM CaCl2, 20 mM HEPES, 1 g/L glucose, 0.125 mM sulfinpyrazone, pH 7.4. After 60 min of loading with 4 uM Fluo-4 (TefLabs, Austin, Tex.), the cells were washed three times with 50 μl of PBS Buffer and resuspended in 45 μl of assay Buffer. The plates were then transferred to a Fluorometric Imaging Plate Reader (FLIPR, Molecular Devices, Sunnyvale, Calif.) for the assessment of intracellular calcium flux. After monitoring the baseline fluorescence for 10 seconds, increasing concentrations of representative compound (from 0.01 to 60 μM) of the present invention diluted in Assay Buffer (15 μl of 4× dilutions) was added to the cell. The final DMSO concentration in the assay was 0.3%. In each experiment, fluorescence was then monitored as a function of time for 3 minutes and the data analyzed using Microsoft Excel and GraphPad Prism. Each data point was also measured two times.
Under these experimental conditions, this HEK-rat mGluR5 cell line is able to directly detect positive allosteric modulators without the need of co-addition of glutamate or mGluR5 agonist.
The concentration-response curves of representative compounds of the present invention were generated using the Prism GraphPad software (Graph Pad Inc, San Diego, USA). The curves were fitted to a four-parameter logistic equation:
(Y=Bottom+(Top−Bottom)/(1+10̂((Log EC50−X)*Hill Slope)
allowing determination of EC50 values.
The Table 1 below represents the mean EC50 obtained from at least three independent experiments of selected molecules performed in duplicate.

T1 sequence (P31424 21-1171 isoform P31424-2 limits assumed): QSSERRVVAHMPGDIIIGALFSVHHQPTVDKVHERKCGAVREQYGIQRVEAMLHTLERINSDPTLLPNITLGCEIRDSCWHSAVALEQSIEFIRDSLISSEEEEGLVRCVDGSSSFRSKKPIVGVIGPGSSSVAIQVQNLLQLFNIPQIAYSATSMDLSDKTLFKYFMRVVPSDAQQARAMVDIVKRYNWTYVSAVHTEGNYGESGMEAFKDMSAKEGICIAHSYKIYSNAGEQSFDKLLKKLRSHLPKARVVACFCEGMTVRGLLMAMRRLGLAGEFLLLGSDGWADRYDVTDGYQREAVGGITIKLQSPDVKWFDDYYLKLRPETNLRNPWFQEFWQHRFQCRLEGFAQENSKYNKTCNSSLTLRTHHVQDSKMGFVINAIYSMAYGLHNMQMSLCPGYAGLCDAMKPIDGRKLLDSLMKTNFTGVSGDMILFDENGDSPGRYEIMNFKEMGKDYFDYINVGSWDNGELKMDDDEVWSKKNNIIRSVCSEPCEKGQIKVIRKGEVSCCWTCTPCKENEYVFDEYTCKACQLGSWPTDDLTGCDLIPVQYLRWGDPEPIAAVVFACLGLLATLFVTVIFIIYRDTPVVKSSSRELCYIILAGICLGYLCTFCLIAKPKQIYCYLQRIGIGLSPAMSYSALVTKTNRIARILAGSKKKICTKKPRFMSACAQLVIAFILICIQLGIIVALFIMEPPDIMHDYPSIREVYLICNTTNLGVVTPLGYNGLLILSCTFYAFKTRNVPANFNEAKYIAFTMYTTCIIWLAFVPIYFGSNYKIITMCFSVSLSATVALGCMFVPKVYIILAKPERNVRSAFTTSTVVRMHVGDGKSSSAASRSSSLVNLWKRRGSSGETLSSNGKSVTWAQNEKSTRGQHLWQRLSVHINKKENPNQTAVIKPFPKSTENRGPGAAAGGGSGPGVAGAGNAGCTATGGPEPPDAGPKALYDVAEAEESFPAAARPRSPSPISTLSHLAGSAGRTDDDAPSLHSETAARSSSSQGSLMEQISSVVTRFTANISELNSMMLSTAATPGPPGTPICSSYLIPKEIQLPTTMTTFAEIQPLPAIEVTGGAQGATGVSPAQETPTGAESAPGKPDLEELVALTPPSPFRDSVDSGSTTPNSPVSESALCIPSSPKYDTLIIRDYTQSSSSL

Compound	pEC50 (rat mGluR5)	melting point [°C]
O=C(c1ccc(F)cc1)N1CCC=C(c2nc(-c3ccc(F)cc3)no2)C1 [Example 1, (4-Fluoro-phenyl)-{5-[3-(4-fluoro-phenyl)-[1,2,4]oxadiazol-5-yl]-3,6-dihydro-2H-pyridin-1-yl}-methanone]	5.00 to 6.00	138 to 140
O=C(c1ccc(F)cc1)N1CCCC1Cc1nc(-c2ccc(F)cc2)no1 (stereo not drawn) [Example 2, (4-Fluoro-phenyl)-{2-[3-(4-fluoro-phenyl)-[1,2,4]oxadiazol-5-ylmethyl]-pyrrolidin-1-yl}-methanone]	5.00 to 6.00	158 to 162
N#Cc1cc(C(=O)N2CCC[C@H](c3nc(-c4ccc(F)cc4)no3)C2)ccc1F [Example 3, 2-Fluoro-5-{(S)-3-[3-(4-fluoro-phenyl)-[1,2,4]oxadiazol-5-yl]-piperidine-1-carbonyl}-benzonitrile]	5.00 to 6.00	144 to 146
O=C(C1CCSCC1)N1CCC[C@H](c2nc(-c3ccc(F)cc3)no2)C1 [Example 7, {(S)-3-[3-(4-Fluoro-phenyl)-[1,2,4]oxadiazol-5-yl]-piperidin-1-yl}-(tetrahydro-thiopyran-4-yl)-methanone]	5.00 to 6.00	139 to 141
O=C(C1CCOCC1)N1CCC[C@H](c2nc(-c3ccc(F)cc3)no2)C1 [Example 9, {(S)-3-[3-(4-Fluoro-phenyl)-[1,2,4]oxadiazol-5-yl]-piperidin-1-yl}-(tetrahydro-pyran-4-yl)-methanone]	5.00 to 6.00	98 to 100
O=C(C1CCCCC1)N1CCC[C@H](c2nc(-c3ccc(F)cc3)no2)C1 [Example 10, Cyclohexyl-{(S)-3-[3-(4-fluoro-phenyl)-[1,2,4]oxadiazol-5-yl]-piperidin-1-yl}-methanone]	5.00 to 6.00	80 to 85
O=C(c1ccccc1)c1cccc(C(=O)N2CCC[C@H](c3nc(-c4ccc(F)cc4)no3)C2)c1 [Example 11, (3-Benzoyl-phenyl)-{(S)-3-[3-(4-fluoro-phenyl)-[1,2,4]oxadiazol-5-yl]-piperidin-1-yl}-methanone]	5.00 to 6.00	158 to 163
Cc1cc(F)ccc1C(=O)N1CCC[C@H](c2nc(-c3ccncc3)no2)C1 [Example 53, (4-Fluoro-2-methyl-phenyl)-[(S)-3-(3-pyridin-4-yl-[1,2,4]oxadiazol-5-yl)-piperidin-1-yl]-methanone]	5.00 to 6.00	–
O=C(c1ccccc1NCc1ccccc1)N1CCC[C@H](c2nc(-c3ccc(F)cc3)no2)C1 [Example 55, (2-Benzylamino-phenyl)-{(S)-3-[3-(4-fluoro-phenyl)-[1,2,4]oxadiazol-5-yl]-piperidin-1-yl}-methanone]	< 5.00	–
Cc1oncc1C(=O)N1CCC[C@H](c2nc(-c3ccccc3)no2)C1 [Example 56, (5-Methyl-isoxazol-4-yl)-[(S)-3-(3-phenyl-[1,2,4]oxadiazol-5-yl)-piperidin-1-yl]-methanone]	> 6.00	–
O=C(c1ccc(F)cc1)N1CCC[C@H](c2nc(-c3cnccn3)no2)C1 [Example 57, (4-Fluoro-phenyl)-[(S)-3-(3-pyrazin-2-yl-[1,2,4]oxadiazol-5-yl)-piperidin-1-yl]-methanone]	< 5.00	–
O=C(c1ccc(F)cc1F)N1CCC[C@H](c2nc(-c3ccccc3)no2)C1 [Example 59, (2,4-Difluoro-phenyl)-[(S)-3-(3-phenyl-[1,2,4]oxadiazol-5-yl)-piperidin-1-yl]-methanone]	> 6.00	–
O=C(c1ccc(F)cc1F)N1CCC[C@H](c2nc(-c3ccccc3F)no2)C1 [Example 60, (2,4-Difluoro-phenyl)-{(S)-3-[3-(2-fluoro-phenyl)-[1,2,4]oxadiazol-5-yl]-piperidin-1-yl}-methanone]	> 6.00	–
Cc1oncc1C(=O)N1CCC[C@H](c2nc(-c3ccccc3F)no2)C1 [Example 61, {(S)-3-[3-(2-Fluoro-phenyl)-[1,2,4]oxadiazol-5-yl]-piperidin-1-yl}-(5-methyl-isoxazol-4-yl)-methanone]	> 6.00	–
O=C(c1ccc(F)nc1)N1CCC[C@H](c2nc(-c3ccccc3)no2)C1 [Example 62, (6-Fluoro-pyridin-3-yl)-[(S)-3-(3-phenyl-[1,2,4]oxadiazol-5-yl)-piperidin-1-yl]-methanone]	> 6.00	–
Cc1cc(F)ccc1C(=O)N1CCC[C@H](c2nc(-c3ccccc3)no2)C1 [Example 63, (4-Fluoro-2-methyl-phenyl)-[(S)-3-(3-phenyl-[1,2,4]oxadiazol-5-yl)-piperidin-1-yl]-methanone]	5.00 to 6.00	–
O=C(c1ccc(F)nc1)N1CCC[C@H](c2nc(-c3ccccc3F)no2)C1 [Example 64, {(S)-3-[3-(2-Fluoro-phenyl)-[1,2,4]oxadiazol-5-yl]-piperidin-1-yl}-(6-fluoro-pyridin-3-yl)-methanone]	> 6.00	–
Cc1oncc1C(=O)N1CCC[C@H](c2nc(-c3ccc(F)cc3F)no2)C1 [Example 65, {(S)-3-[3-(2,4-Difluoro-phenyl)-[1,2,4]oxadiazol-5-yl]-piperidin-1-yl}-(5-methyl-isoxazol-4-yl)-methanone]	5.00 to 6.00	–
O=C(c1ccc(F)nc1)N1CCC[C@H](c2nc(-c3ccc(F)cc3F)no2)C1 [Example 66, {(S)-3-[3-(2,4-Difluoro-phenyl)-[1,2,4]oxadiazol-5-yl]-piperidin-1-yl}-(6-fluoro-pyridin-3-yl)-methanone]	> 6.00	–
Cc1cc(F)ccc1C(=O)N1CCC[C@H](c2nc(-c3ccc(F)cc3F)no2)C1 [Example 67, {(S)-3-[3-(2,4-Difluoro-phenyl)-[1,2,4]oxadiazol-5-yl]-piperidin-1-yl}-(4-fluoro-2-methyl-phenyl)-methanone]	5.00 to 6.00	–
O=C(c1ccc(F)c(F)c1)N1CCC[C@H](c2nc(-c3ccc(F)cc3F)no2)C1 [Example 68, (3,4-Difluoro-phenyl)-{(S)-3-[3-(2,4-difluoro-phenyl)-[1,2,4]oxadiazol-5-yl]-piperidin-1-yl}-methanone]	> 6.00	–
O=C(c1ccc(F)cc1F)N1CCC[C@H](c2nc(-c3ccc(F)cc3F)no2)C1 [Example 69, (2,4-Difluoro-phenyl)-{(S)-3-[3-(2,4-difluoro-phenyl)-[1,2,4]oxadiazol-5-yl]-piperidin-1-yl}-methanone]	5.00 to 6.00	–
O=C(c1ccc(F)cc1F)N1CCC[C@H](c2nc(-c3ccccn3)no2)C1 [Example 70, (2,4-Difluoro-phenyl)-[(S)-3-(3-pyridin-2-yl-[1,2,4]oxadiazol-5-yl)-piperidin-1-yl]-methanone]	5.00 to 6.00	–
Cc1cc(F)ccc1C(=O)N1CCC[C@H](c2nc(-c3ccccc3F)no2)C1 [Example 71, (4-Fluoro-2-methyl-phenyl)-{(S)-3-[3-(2-fluoro-phenyl)-[1,2,4]oxadiazol-5-yl]-piperidin-1-yl}-methanone]	5.00 to 6.00	–
Cc1ncc(-c2noc([C@H]3CCCN(C(=O)c4ccc(F)cc4)C3)n2)s1 [Example 72, (4-Fluoro-phenyl)-{(S)-3-[3-(2-methyl-thiazol-5-yl)-[1,2,4]oxadiazol-5-yl]-piperidin-1-yl}-methanone]	5.00 to 6.00	–
Cc1ncc(-c2noc([C@H]3CCCN(C(=O)c4ccc(F)nc4)C3)n2)s1 [Example 73, (6-Fluoro-pyridin-3-yl)-{(S)-3-[3-(2-methyl-thiazol-5-yl)-[1,2,4]oxadiazol-5-yl]-piperidin-1-yl}-methanone]	< 5.00	–
Cc1ncc(-c2noc([C@H]3CCCN(C(=O)c4ccc(F)cc4F)C3)n2)s1 [Example 74, (2,4-Difluoro-phenyl)-{(S)-3-[3-(2-methyl-thiazol-5-yl)-[1,2,4]oxadiazol-5-yl]-piperidin-1-yl}-methanone]	5.00 to 6.00	–
Cc1ncc(-c2noc([C@H]3CCCN(C(=O)c4ccc(F)c(F)c4)C3)n2)s1 [Example 75, (3,4-Difluoro-phenyl)-{(S)-3-[3-(2-methyl-thiazol-5-yl)-[1,2,4]oxadiazol-5-yl]-piperidin-1-yl}-methanone]	5.00 to 6.00	–
O=C(c1ccc(OC(F)(F)F)cc1)N1CCC[C@H](c2nc(-c3ccc(F)cc3)no2)C1 [Example 76, {(S)-3-[3-(4-Fluoro-phenyl)-[1,2,4]oxadiazol-5-yl]-piperidin-1-yl}-(4-trifluoromethoxy-phenyl)-methanone]	5.00 to 6.00	–
